# In ChEMBL document CHEMBL1909046, “DrugMatrix in vitro pharmacology data”:
# Target: 5-hydroxytryptamine receptor 2B (Homo sapiens, UniProt P41595); also: in other assays of this panel Not Active means under 50% inhibition at 10 µM
# Assay type: cell membranes, CHO-K1, Membrane
# Details: cho-k1
# Chain of 5-hydroxytryptamine receptor 2B (P41595 whole entry): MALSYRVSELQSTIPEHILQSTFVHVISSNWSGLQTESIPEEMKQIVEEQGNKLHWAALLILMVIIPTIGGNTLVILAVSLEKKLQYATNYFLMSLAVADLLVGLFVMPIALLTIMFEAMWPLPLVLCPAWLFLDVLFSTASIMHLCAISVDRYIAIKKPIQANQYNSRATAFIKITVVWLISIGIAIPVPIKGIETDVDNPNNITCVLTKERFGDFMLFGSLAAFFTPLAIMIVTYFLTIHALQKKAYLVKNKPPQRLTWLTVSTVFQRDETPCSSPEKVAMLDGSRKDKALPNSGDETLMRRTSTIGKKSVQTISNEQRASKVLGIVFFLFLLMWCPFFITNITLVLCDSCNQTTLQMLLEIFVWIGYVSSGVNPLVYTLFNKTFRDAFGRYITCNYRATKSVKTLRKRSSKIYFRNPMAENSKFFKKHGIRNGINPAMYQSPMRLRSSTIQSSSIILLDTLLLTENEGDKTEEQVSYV
row,Compound,IC50
1,COc1cccc2c1C(=O)c1c(O)c3c(c(O)c1C2=O)C[C@@](O)(C(=O)CO)C[C@@H]3O[C@H]1C[C@H](N)[C@H](O)[C@H](C)O1 [DOXORUBICIN],Not Active
2,COc1cccc2c1C(=O)c1c(O)c3c(c(O)c1C2=O)C[C@@](O)(C(=O)CO)C[C@@H]3O[C@H]1C[C@H](N)[C@@H](O)[C@H](C)O1 [EPIRUBICIN],Not Active
3,C[C@]12CC[C@@H]3c4ccc(O)cc4CC[C@H]3[C@@H]1CC[C@@H]2O [ESTRADIOL],Not Active
4,CC[C@@H](CO)NCCN[C@@H](CC)CO [ETHAMBUTOL],Not Active
5,CC1(C)O[C@@H]2C[C@H]3[C@@H]4C[C@H](F)C5=CC(=O)C=C[C@]5(C)[C@H]4[C@@H](O)C[C@]3(C)[C@]2(C(=O)CO)O1 [FLUNISOLIDE],Not Active
6,CC1(C)O[C@@H]2C[C@H]3[C@@H]4C[C@H](F)C5=CC(=O)C=C[C@]5(C)[C@@]4(F)[C@@H](O)C[C@]3(C)[C@]2(C(=O)CO)O1 [FLUOCINOLONE ACETONIDE],Not Active
7,CC1(C)O[C@@H]2C[C@H]3[C@@H]4C[C@H](F)C5=CC(=O)CC[C@]5(C)[C@H]4[C@@H](O)C[C@]3(C)[C@]2(C(=O)CO)O1 [FLURANDRENOLIDE],Not Active

# Tested on: not listed separately
# Assay: DRUGMATRIX: Glutamate, AMPA radioligand binding (ligand: [3H] AMPA)
# Assay type: cell membranes, Rattus norvegicus, Wistar, Cerebral cortex, Membrane
# Details: Not Active = under 50% inhibition at 10 µM
Compound,IC50,Ki
COc1cccc2c1C(=O)c1c(O)c3c(c(O)c1C2=O)C[C@@](O)(C(=O)CO)C[C@@H]3O[C@H]1C[C@H](N)[C@H](O)[C@H](C)O1 [DOXORUBICIN],Not Active,Not Active
COc1cccc2c1C(=O)c1c(O)c3c(c(O)c1C2=O)C[C@@](O)(C(=O)CO)C[C@@H]3O[C@H]1C[C@H](N)[C@@H](O)[C@H](C)O1 [EPIRUBICIN],Not Active,Not Active
C[C@]12CC[C@@H]3c4ccc(O)cc4CC[C@H]3[C@@H]1CC[C@@H]2O [ESTRADIOL],Not Active,Not Active
CC[C@@H](CO)NCCN[C@@H](CC)CO [ETHAMBUTOL],Not Active,Not Active
CC1(C)O[C@@H]2C[C@H]3[C@@H]4C[C@H](F)C5=CC(=O)C=C[C@]5(C)[C@H]4[C@@H](O)C[C@]3(C)[C@]2(C(=O)CO)O1 [FLUNISOLIDE],Not Active,Not Active
CC1(C)O[C@@H]2C[C@H]3[C@@H]4C[C@H](F)C5=CC(=O)C=C[C@]5(C)[C@@]4(F)[C@@H](O)C[C@]3(C)[C@]2(C(=O)CO)O1 [FLUOCINOLONE ACETONIDE],Not Active,Not Active
CC1(C)O[C@@H]2C[C@H]3[C@@H]4C[C@H](F)C5=CC(=O)CC[C@]5(C)[C@H]4[C@@H](O)C[C@]3(C)[C@]2(C(=O)CO)O1 [FLURANDRENOLIDE],Not Active,Not Active

# Target: T1, 3-hydroxy-3-methylglutaryl-coenzyme A reductase (Homo sapiens, UniProt P04035);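 also: enzyme inhibition assay of HMG-CoA reductase using radiolabeled [14C]HMG-CoA as substrate; in other assays of this panel Not Active means under 50% inhibition at 10 µM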
# T1 sequence (P04035 whole entry): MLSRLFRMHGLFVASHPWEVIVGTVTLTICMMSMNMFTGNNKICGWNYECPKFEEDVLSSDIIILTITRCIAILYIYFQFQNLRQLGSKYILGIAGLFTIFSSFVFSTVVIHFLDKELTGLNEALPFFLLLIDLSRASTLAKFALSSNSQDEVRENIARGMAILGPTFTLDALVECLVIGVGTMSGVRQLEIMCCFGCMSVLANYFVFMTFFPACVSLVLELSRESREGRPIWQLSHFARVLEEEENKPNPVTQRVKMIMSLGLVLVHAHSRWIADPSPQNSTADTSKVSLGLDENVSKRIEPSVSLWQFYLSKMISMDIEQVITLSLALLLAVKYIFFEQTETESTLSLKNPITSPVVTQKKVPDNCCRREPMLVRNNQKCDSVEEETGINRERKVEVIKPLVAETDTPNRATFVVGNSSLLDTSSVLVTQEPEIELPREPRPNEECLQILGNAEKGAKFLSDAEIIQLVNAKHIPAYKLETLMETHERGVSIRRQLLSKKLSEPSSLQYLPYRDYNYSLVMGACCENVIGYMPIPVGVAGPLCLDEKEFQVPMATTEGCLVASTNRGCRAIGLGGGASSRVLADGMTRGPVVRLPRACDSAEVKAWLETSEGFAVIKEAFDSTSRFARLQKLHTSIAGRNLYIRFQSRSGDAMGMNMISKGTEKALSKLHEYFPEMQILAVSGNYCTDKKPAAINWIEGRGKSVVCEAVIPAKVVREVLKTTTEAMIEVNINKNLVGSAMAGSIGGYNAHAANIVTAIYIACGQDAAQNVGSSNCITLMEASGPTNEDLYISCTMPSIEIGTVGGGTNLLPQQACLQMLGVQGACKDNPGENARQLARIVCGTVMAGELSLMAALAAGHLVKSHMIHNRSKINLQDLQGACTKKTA
# Set-up: species or system Escherichia coli
# Details: not given
row,Compound,IC50
1,COc1cccc2c1C(=O)c1c(O)c3c(c(O)c1C2=O)C[C@@](O)(C(=O)CO)C[C@@H]3O[C@H]1C[C@H](N)[C@H](O)[C@H](C)O1 [DOXORUBICIN],Not Active
2,COc1cccc2c1C(=O)c1c(O)c3c(c(O)c1C2=O)C[C@@](O)(C(=O)CO)C[C@@H]3O[C@H]1C[C@H](N)[C@@H](O)[C@H](C)O1 [EPIRUBICIN],Not Active
3,C[C@]12CC[C@@H]3c4ccc(O)cc4CC[C@H]3[C@@H]1CC[C@@H]2O [ESTRADIOL],Not Active
4,CC[C@@H](CO)NCCN[C@@H](CC)CO [ETHAMBUTOL],Not Active
5,CC1(C)O[C@@H]2C[C@H]3[C@@H]4C[C@H](F)C5=CC(=O)C=C[C@]5(C)[C@H]4[C@@H](O)C[C@]3(C)[C@]2(C(=O)CO)O1 [FLUNISOLIDE],Not Active
6,CC1(C)O[C@@H]2C[C@H]3[C@@H]4C[C@H](F)C5=CC(=O)C=C[C@]5(C)[C@@]4(F)[C@@H](O)C[C@]3(C)[C@]2(C(=O)CO)O1 [FLUOCINOLONE ACETONIDE],Not Active
7,CC1(C)O[C@@H]2C[C@H]3[C@@H]4C[C@H](F)C5=CC(=O)CC[C@]5(C)[C@H]4[C@@H](O)C[C@]3(C)[C@]2(C(=O)CO)O1 [FLURANDRENOLIDE],Not Active

# Target: C-C chemokine receptor type 2 (Homo sapiens, UniProt P41597); also: in other assays of this panel Not Active means under 50% inhibition at 10 µM
# Assay type: cell membranes, CHO-K1, Membrane
# Details: cho-k1
# Chain of C-C chemokine receptor type 2 (P41597 whole entry): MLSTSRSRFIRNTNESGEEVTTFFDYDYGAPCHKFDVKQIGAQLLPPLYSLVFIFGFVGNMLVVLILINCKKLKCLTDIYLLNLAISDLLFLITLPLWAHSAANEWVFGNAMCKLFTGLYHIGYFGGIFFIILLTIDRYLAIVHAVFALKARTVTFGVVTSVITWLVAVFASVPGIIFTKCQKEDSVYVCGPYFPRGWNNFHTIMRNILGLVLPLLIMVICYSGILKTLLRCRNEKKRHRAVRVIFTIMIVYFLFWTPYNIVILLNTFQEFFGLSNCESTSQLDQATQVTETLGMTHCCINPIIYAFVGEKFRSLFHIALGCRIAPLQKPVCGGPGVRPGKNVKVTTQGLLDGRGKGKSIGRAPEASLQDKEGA
row,Compound,IC50
1,COc1cccc2c1C(=O)c1c(O)c3c(c(O)c1C2=O)C[C@@](O)(C(=O)CO)C[C@@H]3O[C@H]1C[C@H](N)[C@H](O)[C@H](C)O1 [DOXORUBICIN],Not Active
2,COc1cccc2c1C(=O)c1c(O)c3c(c(O)c1C2=O)C[C@@](O)(C(=O)CO)C[C@@H]3O[C@H]1C[C@H](N)[C@@H](O)[C@H](C)O1 [EPIRUBICIN],Not Active
3,C[C@]12CC[C@@H]3c4ccc(O)cc4CC[C@H]3[C@@H]1CC[C@@H]2O [ESTRADIOL],Not Active
4,CC[C@@H](CO)NCCN[C@@H](CC)CO [ETHAMBUTOL],Not Active
5,CC1(C)O[C@@H]2C[C@H]3[C@@H]4C[C@H](F)C5=CC(=O)C=C[C@]5(C)[C@H]4[C@@H](O)C[C@]3(C)[C@]2(C(=O)CO)O1 [FLUNISOLIDE],Not Active
6,CC1(C)O[C@@H]2C[C@H]3[C@@H]4C[C@H](F)C5=CC(=O)C=C[C@]5(C)[C@@]4(F)[C@@H](O)C[C@]3(C)[C@]2(C(=O)CO)O1 [FLUOCINOLONE ACETONIDE],Not Active
7,CC1(C)O[C@@H]2C[C@H]3[C@@H]4C[C@H](F)C5=CC(=O)CC[C@]5(C)[C@H]4[C@@H](O)C[C@]3(C)[C@]2(C(=O)CO)O1 [FLURANDRENOLIDE],Not Active

# Tested on: not listed separately
# Assay: DRUGMATRIX: GABAA, Flunitrazepam, Central radioligand binding (ligand: [3H] Flunitrazepam)
# Assay type: cell membranes, Rattus norvegicus, Wistar, Brain, Membrane
# Details: Not Active = under 50% inhibition at 10 µM
Compound,IC50,Ki
COc1cccc2c1C(=O)c1c(O)c3c(c(O)c1C2=O)C[C@@](O)(C(=O)CO)C[C@@H]3O[C@H]1C[C@H](N)[C@H](O)[C@H](C)O1 [DOXORUBICIN],Not Active,Not Active
COc1cccc2c1C(=O)c1c(O)c3c(c(O)c1C2=O)C[C@@](O)(C(=O)CO)C[C@@H]3O[C@H]1C[C@H](N)[C@@H](O)[C@H](C)O1 [EPIRUBICIN],Not Active,Not Active
C[C@]12CC[C@@H]3c4ccc(O)cc4CC[C@H]3[C@@H]1CC[C@@H]2O [ESTRADIOL],Not Active,Not Active
CC[C@@H](CO)NCCN[C@@H](CC)CO [ETHAMBUTOL],Not Active,Not Active
CC1(C)O[C@@H]2C[C@H]3[C@@H]4C[C@H](F)C5=CC(=O)C=C[C@]5(C)[C@H]4[C@@H](O)C[C@]3(C)[C@]2(C(=O)CO)O1 [FLUNISOLIDE],Not Active,Not Active
CC1(C)O[C@@H]2C[C@H]3[C@@H]4C[C@H](F)C5=CC(=O)C=C[C@]5(C)[C@@]4(F)[C@@H](O)C[C@]3(C)[C@]2(C(=O)CO)O1 [FLUOCINOLONE ACETONIDE],Not Active,Not Active
CC1(C)O[C@@H]2C[C@H]3[C@@H]4C[C@H](F)C5=CC(=O)CC[C@]5(C)[C@H]4[C@@H](O)C[C@]3(C)[C@]2(C(=O)CO)O1 [FLURANDRENOLIDE],Not Active,Not Active

# Tested on: not listed separately
# Assay: DRUGMATRIX: Atrial Natriuretic Factor (ANF) radioligand binding (ligand: [125I] ANF (rat))
# Assay type: cell membranes, Cavia porcellus, Dunkin-Hartley, Adrenal gland, Membrane
# Details: Not Active = under 50% inhibition at 10 µM
Compound,IC50,Ki
COc1cccc2c1C(=O)c1c(O)c3c(c(O)c1C2=O)C[C@@](O)(C(=O)CO)C[C@@H]3O[C@H]1C[C@H](N)[C@H](O)[C@H](C)O1 [DOXORUBICIN],Not Active,Not Active
COc1cccc2c1C(=O)c1c(O)c3c(c(O)c1C2=O)C[C@@](O)(C(=O)CO)C[C@@H]3O[C@H]1C[C@H](N)[C@@H](O)[C@H](C)O1 [EPIRUBICIN],Not Active,Not Active
C[C@]12CC[C@@H]3c4ccc(O)cc4CC[C@H]3[C@@H]1CC[C@@H]2O [ESTRADIOL],Not Active,Not Active
CC[C@@H](CO)NCCN[C@@H](CC)CO [ETHAMBUTOL],Not Active,Not Active
CC1(C)O[C@@H]2C[C@H]3[C@@H]4C[C@H](F)C5=CC(=O)C=C[C@]5(C)[C@H]4[C@@H](O)C[C@]3(C)[C@]2(C(=O)CO)O1 [FLUNISOLIDE],Not Active,Not Active
CC1(C)O[C@@H]2C[C@H]3[C@@H]4C[C@H](F)C5=CC(=O)C=C[C@]5(C)[C@@]4(F)[C@@H](O)C[C@]3(C)[C@]2(C(=O)CO)O1 [FLUOCINOLONE ACETONIDE],Not Active,Not Active
CC1(C)O[C@@H]2C[C@H]3[C@@H]4C[C@H](F)C5=CC(=O)CC[C@]5(C)[C@H]4[C@@H](O)C[C@]3(C)[C@]2(C(=O)CO)O1 [FLURANDRENOLIDE],Not Active,Not Active

# Tested on: not listed separately
# Assay: DRUGMATRIX: Glutamate, Kainate radioligand binding (ligand: [3H] Kainic acid)
# Assay type: cell membranes, Rattus norvegicus, Wistar, Brain, Membrane
# Details: Not Active = under 50% inhibition at 10 µM
Compound,IC50,Ki
COc1cccc2c1C(=O)c1c(O)c3c(c(O)c1C2=O)C[C@@](O)(C(=O)CO)C[C@@H]3O[C@H]1C[C@H](N)[C@H](O)[C@H](C)O1 [DOXORUBICIN],Not Active,Not Active
COc1cccc2c1C(=O)c1c(O)c3c(c(O)c1C2=O)C[C@@](O)(C(=O)CO)C[C@@H]3O[C@H]1C[C@H](N)[C@@H](O)[C@H](C)O1 [EPIRUBICIN],Not Active,Not Active
C[C@]12CC[C@@H]3c4ccc(O)cc4CC[C@H]3[C@@H]1CC[C@@H]2O [ESTRADIOL],Not Active,Not Active
CC[C@@H](CO)NCCN[C@@H](CC)CO [ETHAMBUTOL],Not Active,Not Active
CC1(C)O[C@@H]2C[C@H]3[C@@H]4C[C@H](F)C5=CC(=O)C=C[C@]5(C)[C@H]4[C@@H](O)C[C@]3(C)[C@]2(C(=O)CO)O1 [FLUNISOLIDE],Not Active,Not Active
CC1(C)O[C@@H]2C[C@H]3[C@@H]4C[C@H](F)C5=CC(=O)C=C[C@]5(C)[C@@]4(F)[C@@H](O)C[C@]3(C)[C@]2(C(=O)CO)O1 [FLUOCINOLONE ACETONIDE],Not Active,Not Active
CC1(C)O[C@@H]2C[C@H]3[C@@H]4C[C@H](F)C5=CC(=O)CC[C@]5(C)[C@H]4[C@@H](O)C[C@]3(C)[C@]2(C(=O)CO)O1 [FLURANDRENOLIDE],Not Active,Not Active
